# Counter-ions that a name gives are not always drawn.
# How the values were obtained:
# [1] = target: T1, GST-tagged truncated LRRK2 (Homo sapiens, UniProt Q5S007); assay: LRRK2 Assay, Format 2 (Lantha Screen), WT; format: biochemical; conditions: geometric mean of 2-4 determinations unless otherwise indicated (a: >=5; b: single determination)
# T1 construct: GST-tagged truncated LRRK2 from Invitrogen (Cat # PV4874); GST; purchased Invitrogen PV4874
# Protocol: (§1) LRRK2 kinase activity was measured using Lantha Screen technology from Invitrogen. GST-tagged truncated LRRK2 from Invitrogen (Cat # PV4874) was incubated with a fluorescein-labeled peptide substrate based upon ezrin/radixin/moesin (ERM), also known as LRRKtide (Invitrogen cat # PR8976A), in the presence of a dose response of compound. Upon completion, the assay was stopped and detected with a terbium labeled anti-phospho-ERM antibody (Invitrogen, cat # PR8975A). […] Using Echo acoustic dispensing, 60 nL of compound was transferred to a low volume Corning 384-well assay plate. 3 μL of a working solution of substrate (200 nM LRRKtide, […]) prepared in assay buffer (50 mM HEPES, pH 7.5, 3 mM MgCl2, with 2 mM DTT and 0.01% Brij35 added fresh) was added to the 60 nL compound assay plate. The kinase reaction was started with […] of a working solution of LRRK2 enzyme at a concentration of […]. The final reaction concentrations were 100 nM LRRKtide, […], […] LRRK2 enzyme and a compound dose response with a top dose of 3 mM. The reaction was allowed to progress at room temperature for 30 minutes and then stopped with the addition of […] of detection buffer (20 mM Tris pH 7.6, 0.01% NP-40, 6 mM EDTA with 2 nM terbium labeled anti-phospho-ERM). After an incubation of 1 hour at room temperature, the plate was read on an Envision with an excitation wavelength of 340 nm and a reading emission at both 520 nm and 495 nm. The ratio of the 520 nm and 495 nm emission was used to analyze the data. Inhibition of mutant G2019S LRRK2 (Invitrogen cat # PV4881) was measured in the exact same method. All final concentrations of substrate ATP and enzyme were the same.
# [2] = target: mutant G2019S LRRK2 (Homo sapiens, UniProt Q5S007, G2019S); assay: LRRK2 Assay, Format 2 (Lantha Screen), G2019S mutant; format: biochemical; parameters: purchased Invitrogen PV4881; conditions: geometric mean of 2-4 determinations unless otherwise indicated (a: >=5; b: single determination); read-out: LRRK2, Format 2 G2019S IC50
# Protocol: as §1
# T1 sequence (Q5S007 970-2527 limits assumed): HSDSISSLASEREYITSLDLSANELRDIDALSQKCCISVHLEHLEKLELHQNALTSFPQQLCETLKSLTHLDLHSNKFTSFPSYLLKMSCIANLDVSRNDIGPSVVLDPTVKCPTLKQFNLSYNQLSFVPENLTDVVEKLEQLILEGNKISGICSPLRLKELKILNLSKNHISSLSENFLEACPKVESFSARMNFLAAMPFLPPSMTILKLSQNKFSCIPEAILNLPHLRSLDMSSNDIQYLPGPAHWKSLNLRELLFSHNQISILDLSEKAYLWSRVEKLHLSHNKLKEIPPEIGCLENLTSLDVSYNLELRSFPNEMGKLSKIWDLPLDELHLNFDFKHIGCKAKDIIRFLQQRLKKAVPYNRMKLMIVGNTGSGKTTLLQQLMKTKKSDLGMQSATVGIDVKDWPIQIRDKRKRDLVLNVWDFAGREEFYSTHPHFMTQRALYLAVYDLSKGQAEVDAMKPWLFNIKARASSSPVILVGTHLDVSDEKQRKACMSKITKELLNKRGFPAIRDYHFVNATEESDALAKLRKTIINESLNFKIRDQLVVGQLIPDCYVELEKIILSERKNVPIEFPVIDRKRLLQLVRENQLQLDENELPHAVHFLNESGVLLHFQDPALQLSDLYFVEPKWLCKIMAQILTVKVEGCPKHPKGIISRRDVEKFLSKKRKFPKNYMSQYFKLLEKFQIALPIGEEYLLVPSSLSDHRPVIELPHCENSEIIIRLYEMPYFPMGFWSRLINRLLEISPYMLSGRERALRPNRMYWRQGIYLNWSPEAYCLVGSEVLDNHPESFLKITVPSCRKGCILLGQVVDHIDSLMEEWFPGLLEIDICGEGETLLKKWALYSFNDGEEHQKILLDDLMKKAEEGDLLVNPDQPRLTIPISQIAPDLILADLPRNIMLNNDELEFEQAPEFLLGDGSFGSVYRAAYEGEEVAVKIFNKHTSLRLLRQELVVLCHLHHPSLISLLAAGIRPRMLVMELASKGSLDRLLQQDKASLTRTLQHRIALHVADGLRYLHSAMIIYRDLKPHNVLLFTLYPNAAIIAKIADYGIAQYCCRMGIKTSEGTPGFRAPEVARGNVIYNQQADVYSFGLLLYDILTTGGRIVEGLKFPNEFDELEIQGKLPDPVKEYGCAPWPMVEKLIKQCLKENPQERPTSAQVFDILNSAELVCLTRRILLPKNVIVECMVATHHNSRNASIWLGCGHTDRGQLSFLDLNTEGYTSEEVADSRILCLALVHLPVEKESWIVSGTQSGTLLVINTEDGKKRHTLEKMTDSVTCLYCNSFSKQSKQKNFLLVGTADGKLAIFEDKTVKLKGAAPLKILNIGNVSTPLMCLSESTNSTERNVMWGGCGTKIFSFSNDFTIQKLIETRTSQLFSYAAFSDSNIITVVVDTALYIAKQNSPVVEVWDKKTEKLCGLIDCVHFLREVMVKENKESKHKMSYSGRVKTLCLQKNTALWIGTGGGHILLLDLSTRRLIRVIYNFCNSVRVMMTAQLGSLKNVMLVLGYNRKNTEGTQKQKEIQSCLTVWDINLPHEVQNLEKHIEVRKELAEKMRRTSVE
# Chain of mutant G2019S LRRK2 (Q5S007 970-2527 G2019S limits assumed): as the sequence (Q5S007 970-2527 limits assumed) above, with G1050S counted along it
Structure (SMILES),IC50 [1],IC50 [2]
"C[C@@H]1C[C@H](n2c(Cn3cncn3)nc3cnc4ccc(C#N)cc4c32)CCO1 [Example 120, 1-[(2R,4R)-2-methyltetrahydro-2H-pyran-4-yl]-2-(1H-1,2,4-triazol-1-ylmethyl)-1H-imidazo[4,5-c]quinoline-8-carbonitrile, formate salt]",5.74 nM,5.07 nM
"C[C@@H]1C[C@H](n2c(Cn3cccn3)nc3cnc4ccc(C#N)cc4c32)CCO1 [Example 121, 1-[(2R,4R)-2-methyltetrahydro-2H-pyran-4-yl]-2-(1H-pyrazol-1-ylmethyl)-1H-imidazo[4,5-c]quinoline-8-carbonitrile, formate salt]",6.19 nM,5.61 nM
"C[C@@H]1C[C@H](n2c(Cc3coc(C4CC4)n3)nc3cnc4ccc(C#N)cc4c32)CCO1 [Example 122, 2-[(2-cyclopropyl-1,3-oxazol-4-yl)methyl]-1-[(2R,4R)-2-methyltetrahydro-2H-pyran-4-yl]-1H-imidazo[4,5-c]quinoline-8-carbonitrile, formate salt]",4.3 nM,3.7 nM
"Cc1nc(Cc2nc3cnc4ccc(C#N)cc4c3n2[C@@H]2CCO[C@H](C)C2)no1 [Example 123, 2-[(5-methyl-1,2,4-oxadiazol-3-yl)methyl]-1-[(2R,4R)-2-methyltetrahydro-2H-pyran-4-yl]-1H-imidazo[4,5-c]quinoline-8-carbonitrile]",9.25 nM,8.91 nM
"C[C@@H]1C[C@H](n2c(Cn3cnnn3)nc3cnc4ccc(C#N)cc4c32)CCO1 [Example 124, 1-[(2R,4R)-2-methyltetrahydro-2H-pyran-4-yl]-2-(1H-tetrazol-1-ylmethyl)-1H-imidazo[4,5-c]quinoline-8-carbonitrile, formate salt]",6.22 nM,5.33 nM
"C[C@@H]1C[C@H](n2c(Cn3cc(C4CC4)nn3)nc3cnc4ccc(C#N)cc4c32)CCO1 [Example 125, 2-[(4-cyclopropyl-1H-1,2,3-triazol-1-yl)methyl]-1-[(2R,4R)-2-methyltetrahydro-2H-pyran-4-yl]-1H-imidazo[4,5-c]quinoline-8-carbonitrile, formate salt]",7 nM,6.19 nM
"CC(C)c1cn(Cc2nc3cnc4ccc(C#N)cc4c3n2[C@@H]2CCO[C@H](C)C2)nn1 [Example 126, 1-[(2R,4R)-2-methyltetrahydro-2H-pyran-4-yl]-2-{[4-(propan-2-yl)-1H-1,2,3-triazol-1-yl]methyl}-1H-imidazo[4,5-c]quinoline-8-carbonitrile, formate salt]",8.39 nM,8.04 nM
"C[C@@H]1C[C@H](n2c(Cc3cnco3)nc3cnc4ccc(Cl)cc4c32)CCO1 [Example 127, 8-chloro-1-[(2R,4R)-2-methyltetrahydro-2H-pyran-4-yl]-2-(1,3-oxazol-5-ylmethyl)-1H-imidazo[4,5-c]quinoline, formate salt]",7.02 nM,8.01 nM
"C[C@@H]1C[C@H](n2c(Cc3nnnn3C)nc3cnc4ccc(Cl)cc4c32)CCO1 [Example 128, 8-chloro-1-[(2R,4R)-2-methyltetrahydro-2H-pyran-4-yl]-2-[(1-methyl-1H-tetrazol-5-yl)methyl]-1H-imidazo[4,5-c]quinoline, formate salt]",7.18 nM,6.95 nM
"C[C@@H]1C[C@H](n2c(Cn3cnnn3)nc3cnc4ccc(Cl)cc4c32)CCO1 [Example 129, 8-chloro-1-[(2R,4R)-2-methyltetrahydro-2H-pyran-4-yl]-2-(1H-tetrazol-1-ylmethyl)-1H-imidazo[4,5-c]quinoline, formate salt]",3.64 nM,4.17 nM
"C[C@@H]1C[C@H](n2c(Cn3cccn3)nc3cnc4ccc(Cl)cc4c32)CCO1 [Example 130, 8-chloro-1-[(2R,4R)-2-methyltetrahydro-2H-pyran-4-yl]-2-(1H-pyrazol-1-ylmethyl)-1H-imidazo[4,5-c]quinoline, formate salt]",3.43 nM,3.84 nM
"C[C@@H]1C[C@H](n2c(Cc3cn(C)cn3)nc3cnc4ccc(Cl)cc4c32)CCO1 [Example 131, 8-chloro-2-[(1-methyl-1H-imidazol-4-yl)methyl]-1-[(2R,4R)-2-methyltetrahydro-2H-pyran-4-yl]-1H-imidazo[4,5-c]quinoline]",7.23 nM,7.86 nM
"Cc1cnn(Cc2nc3cnc4ccc(C#N)cc4c3n2[C@@H]2CCO[C@H](C)C2)c1 [Example 133, 2-[(4-methyl-1H-pyrazol-1-yl)methyl]-1-[(2R,4R)-2-methyltetrahydro-2H-pyran-4-yl]-1H-imidazo[4,5-c]quinoline-8-carbonitrile]",7.68 nM,7.16 nM
"Cc1cc(Cc2nc3cnc4ccc(Cl)cc4c3n2[C@@H]2CCO[C@H](CO)C2)no1 [Example 137, [(2S,4R)-4-{8-chloro-2-[(5-methyl-1,2-oxazol-3-yl)methyl]-1H-imidazo[4,5-c]quinolin-1-yl}tetrahydro-2H-pyran-2-yl]methanol]",14.1 nM,12 nM
C[C@@H]1C[C@H](n2c(Cc3cc(CO)on3)nc3cnc4ccc(Cl)cc4c32)CCO1 [Example 138],2.89 nM,3.72 nM
"C[C@@H]1C[C@H](n2c(Cc3cc(CF)on3)nc3cnc4ccc(Cl)cc4c32)CCO1 [Example 139, 8-chloro-2-{[5-(fluoromethyl)-1,2-oxazol-3-yl]methyl}-1-[(2R,4R)-2-methyltetrahydro-2H-pyran-4-yl]-1H-imidazo[4,5-c]quinoline]",2.76 nM,2.79 nM
"Cc1cnc(Cc2nc3cnc4ccc(C(F)(F)F)cc4c3n2[C@@H]2CCO[C@H](C)C2)cn1 [Example 141, 2-[(5-methylpyrazin-2-yl)methyl]-1-[(2R,4R)-2-methyltetrahydro-2H-pyran-4-yl]-8-(trifluoromethyl)-1H-imidazo[4,5-c]quinoline]",2.07 nM,1.38 nM
"C[C@@H]1C[C@H](n2c(Cc3cccnn3)nc3cnc4ccc(Cl)cc4c32)CCO1 [Example 142, 8-chloro-1-[(2R,4R)-2-methyltetrahydro-2H-pyran-4-yl]-2-(pyridazin-3-ylmethyl)-1H-imidazo[4,5-c]quinoline]",7.11 nM,5.63 nM
"Cc1cn(Cc2nc3cnc4ccc(Cl)cc4c3n2C2CCOC(C)(C)C2)nn1 (centres unmarked) [Example 148, 8-chloro-1-(2,2-dimethyltetrahydro-2H-pyran-4-yl)-2-[(4-methyl-1H-1,2,3-triazol-1-yl)methyl]-1H-imidazo[4,5-c]quinoline, formate salt]",12.6 nM,13.6 nM
"C[C@@H]1C[C@H](n2c(Cc3cn4ncsc4n3)nc3cnc4ccc(C#N)cc4c32)CCO1 [Example 149, 2-(imidazo[2,1-b][1,3,4]thiadiazol-6-ylmethyl)-1-[(2R,4R)-2-methyltetrahydro-2H-pyran-4-yl]-1H-imidazo[4,5-c]quinoline-8-carbonitrile]",2.04 nM,2.12 nM
"CC1(C)CC(n2c(Cn3cnnn3)nc3cnc4ccc(Cl)cc4c32)CCO1 (centres unmarked) [Example 150, 8-chloro-1-(2,2-dimethyltetrahydro-2H-pyran-4-yl)-2-(1H-tetrazol-1-ylmethyl)-1H-imidazo[4,5-c]quinoline, formate salt]",11.6 nM,12.1 nM
"Cc1cc(Cc2nc3cnc4ccc(C#N)cc4c3n2C2CCCCC2(F)F)no1 (centres unmarked) [Example 151, 1-(2,2-difluorocyclohexyl)-2-[(5-methyl-1,2-oxazol-3-yl)methyl]-1H-imidazo[4,5-c]quinoline-8-carbonitrile, formate salt]",16.7 nM,25.5 nM

# — patent US10039753B2, “Imidazo[4,5-c]quinoline and imidazo[4,5-c][1,5]naphthyridine derivatives as LRRK2 inhibitors” (Pfizer Inc., priority 2015, dated 2018)
